Source: US10272090B1, “Liquid pharmaceutical composition comprising pemetrexed” (SYNTHON B.V., priority 2014, dated 2019)

Assay: Solubility / precipitation of pemetrexed diacid in aqueous solution depending on pH
Type: physicochemical
Conditions: aqueous solutions with neutral or acidic pH

SMILES: Nc1nc2[nH]cc(CCc3ccc(C(=O)N[C@@H](CCC(=O)O)C(=O)O)cc3)c2c(=O)[nH]1 [pemetrexed diacid, N-[4-[2-(2-amino-4,7-dihydro-4-oxo-1H-pyrrolo[2,3-d]pyrimidin-5-yl)ethyl]benzoyl]-L-glutamic acid]
- solubility: very low
